Measurements as given in patent publication US8846675B2, “N-linked heterocyclic receptor agonists for the treatment of diabetes and metabolic disorders” (Cymabay Therapeutics, Inc., priority 2007, dated 2014).
Counter-ions that a name gives are not always drawn.

The compounds below were run against T1, IC-GPCR2 (Homo sapiens, UniProt Q8TDV5) (assay: Stimulation of cAMP in CHO cell line stably expressing IC-GPCR2 (HTRF cAMP dynamic kit)). Details: 3 μM compound; relative to maximal activity of 5-Ethyl-2-{4-[4-(4-tetrazol-1-yl-phenoxymethyl)-thiazol-2-yl]-piperidin-1-yl}-pyrimidine (=100%); IC-GPCR2 stably expressing CHO cells, 30 minutes.
T1 construct: expressed in transfected cells
T1 sequence (Q8TDV5 1-335 S309L): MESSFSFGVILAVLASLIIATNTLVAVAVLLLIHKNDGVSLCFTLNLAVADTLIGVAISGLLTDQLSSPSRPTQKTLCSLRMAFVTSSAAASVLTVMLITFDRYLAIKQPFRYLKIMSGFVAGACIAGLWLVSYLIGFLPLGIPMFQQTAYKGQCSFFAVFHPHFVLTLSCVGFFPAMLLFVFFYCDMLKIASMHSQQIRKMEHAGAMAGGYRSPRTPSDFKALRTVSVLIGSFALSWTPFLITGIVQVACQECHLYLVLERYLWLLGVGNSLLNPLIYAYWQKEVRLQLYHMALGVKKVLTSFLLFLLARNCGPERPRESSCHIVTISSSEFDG
Type: cell-based
Method: This assay was developed using a stable cell line expressing IC-GPCR-2, generated as follows. IC-GPCR2 (Seq. ID No. 1) was cloned into Gateway pDEST 40vector (Invitrogen), using the Gateway cloning system (invitrogen) according to the manufacturers instructions. A stable cell line was generated by transfecting a 10 cm plate of CHO cells (source) with 8 ug of this construct using Transit-CHO transfection kit (Mirus). CHO cells were plated the day prior to transfection at a density of 3,000,000 cells/plate. Clones were selected using the antibiotic G418 at 500 ug/ml. 23 clones were picked and assayed for the expression of the receptor by measuring changes in intracellular cAMP levels in response to an IC-GPCR2 agonist (Arena 51).
To measure cAMP activity in response to IC-GPCR2 agonist, the clones were plated in 96 well plates at 17500 cells per well. On the day after plating, cells were incubated with the IC-CPCR2 agonist at […] for 30 minutes in Ham's F12 Media (Gibco) with 0.04% DMSO. cAMP was measured using the cAMP dynamic kit from C is Bio (Bedford, Mass.) according to the manufacturers instructions. Briefly, cells were lysed, and cAMP levels determined by competitive immunoassay using D2 labeled cAMP, and europium cryptate tagged anti cAMP antibody. When in close proximity, the D2 and europium cryptate undergo fluorescence resonance energy transfer (FRET), which is measured as a fluorescence ratio (665 nm/620 nm). Unlabelled cAMP in the cell lysatc competed with the D2 labeled cAMP for the europium crypate labeled antibody. The resulting decrease in FRET signal corresponded to intracellular cAMP levels. Fluorescence was read on a BMG Labtech PHERAstar, software version 1.50.
The clone with the greatest response to IC-GPCR2 agonist was selected for the screening assay.
Compounds were dissolved in 100% DMSO to a concentration of […] to provide stock solutions. To determine activity against IC-GPCR2, compounds were incubated with IC-GPCR2 stably expressing cells (described above), at 6-8 concentrations ranging from 0.00003 to 10 micromolar, in 96 well plates, in 50 ul of Hams F12 media for 30 minutes. Cells were plated at 17500 cells per well 1 day before running the assay. All compounds were also screened against the parental CHO cells. cAMP was measured using the cAMP dynamic kit from Cis Bio (Bedford, Mass.), according to the manufacturer's instructions. Briefly, cells were lysed and cAMP levels determined by competitive immunoassay using D2 labeled cAMP, and europium cryptate tagged anti cAMP antibody. When in close proximity, the D2 and europium cryptate undergo fluorescence resonance energy transfer (FRET), which is measured as a fluorescence ratio (665 nm/620 nm). Unlabelled cAMP in the cell lysate competed with the D2 labeled cAMP for the europium crypate labeled antibody. The resulting decrease in FRET signal corresponded to intracellular cAMP levels
To determine percent activity for a tested compound, the FRET signal value obtained at a particular concentration are compared to the Maximal FRET signal value obtained for 5-Ethyl-2-{4-[4-(4-tetrazol-1-yl-phenoxymethyl)-thiazol-2-yl]-piperidin-1-yl}-pyrimidine. The maximal activity of 5-Ethyl-2-{4-[4-(4-tetrazol-1-yl-phenoxymethyl)-thiazol-2-yl]-piperidin-1-yl}-pyrimidine is designated as 100% activity. Typically, the concentration of 5-Ethyl-2-{4-[4-(4-tetrazol-1-yl-phenoxymethyl)-thiazol-2-yl]-piperidin-1-yl}-pyrimidine in the assay was approximately 0.1 μM. The synthesis of 5-Ethyl-2-{4-[4-(4-tetrazol-1-yl-phenoxymethyl)-thiazol-2-yl]-piperidin-1-yl}-pyrimidine is disclosed in co-owned pending U.S. patent application Ser. No. 11/964,461, herein incorporated by reference. Activities of compounds that were tested are shown in Table 1 below and are expressed as % activity at 3 μM compound compared to the maximal activity of 5-Ethyl-2-{4-[4-(4-tetrazol-1-yl-phenoxymethyl)-thiazol-2-yl]-piperidin-1-yl}-pyrimidine at 3 μM.

| % activity at 3 μM | SMILES |
| --- | --- |
| 78.44% | FC(F)(F)c1cnc(N2CCC(n3ncc(COc4ccc(-n5cnnn5)nc4)n3)CC2)nc1 [Example 22, 2-{4-[4-(6-Tetrazol-1-yl-pyridin-3-yloxymethyl)-[1,2,3]triazol-2-yl]-piperidin-1-yl}-5-trifluoromethyl-pyrimidine] |
| 48.76% | c1cc(-n2cnnn2)ncc1OCc1cnn(C2CCN(c3nc(C4CC4)no3)CC2)n1 [Example 29, 5-{2-[1-(3-Cyclopropyl-[1,2,4]oxadiazol-5-yl)-piperidin-4-yl]-2H-[1,2,3]triazol-4-ylmethoxy}-2-tetrazol-1-yl-pyridine] |
| 53.41% | Fc1cnc(N2CCC(n3ncc(COc4ccc(-n5cnnn5)cc4F)n3)CC2)nc1 [Example 30, 5-Fluoro-2-(4-(4-((2-fluoro-4-(1H-tetrazol-1-yl)phenoxy)methyl)-2H-1,2,3-triazol-2-yl)piperidin-1-yl)pyrimidine] |
| 59.95% | Fc1cnc(N2CCC(n3ncc(COc4ccc(-n5cnnn5)nc4)n3)CC2)nc1 [Example 31, 2-(4-(4-((6-(1H-tetrazol-1-yl)pyridin-3-yloxy)methyl)-2H-1,2,3-triazol-2-yl)piperidin-1-yl)-5-fluoropyrimidine] |
| 75.55% | CCc1cnc(N2CCC(n3ncc(COc4ccc(-n5cnnn5)nc4)n3)CC2)nc1 [Example 32, 2-(4-(4-((6-(1H-tetrazol-1-yl)pyridin-3-yloxy)methyl)-2H-1,2,3-triazol-2-yl)piperidin-1-yl)-5-ethylpyrimidine] |
| 72.14% | CC(C)OC(=O)N1CCC(n2ncc(COc3ccc(-n4cnnn4)nc3)n2)CC1 [Example 35, Isopropyl 4-(4-((6-(1H-tetrazol-1-yl)pyridin-3-yloxy)methyl)-2H-1,2,3-triazol-2-yl)piperidine-1-carboxylate] |
| 70.06% | CC(C)OC(=O)N1CCC(n2ncc(COc3ccc(S(C)(=O)=O)cc3F)n2)CC1 [Example 36, Isopropyl 4-(4-((2-fluoro-4-(methylsulfonyl)phenoxy)methyl)-2H-1,2,3-triazol-2-yl)piperidine-1-carboxylate] |
| 62.88% | CC(C)OC(=O)N1CCC(n2ncc(COc3ccc(-n4cnnn4)cc3F)n2)CC1 [Example 37, Isopropyl 4-(4-((2-fluoro-4-(1H-tetrazol-1-yl)phenoxy)methyl)-2H-1,2,3-triazol-2-yl)piperidine-1-carboxylate] |
| 7.10% | O=S(=O)(c1c[nH]cn1)N1CCC(n2ncc(COc3ccc(-n4cnnn4)nc3)n2)CC1 [Example 40, 5-((2-(1-(1H-Imidazol-4-ylsulfonyl)piperidin-4-yl)-2H-1,2,3-triazol-4-yl)methoxy)-2-(1H-tetrazol-1-yl)pyridine] |
| 42.63% | O=S(=O)(C1CC1)N1CCC(n2ncc(COc3ccc(-n4cnnn4)nc3)n2)CC1 [Example 41, 5-((2-(1-(Cyclopropylsulfonyl)piperidin-4-yl)-2H-1,2,3-triazol-4-yl)methoxy)-2-(1H-tetrazol-1-yl)pyridine] |
| 70.92% | O=S(=O)(C1CCCCC1)N1CCC(n2ncc(COc3ccc(-n4cnnn4)nc3)n2)CC1 [Example 44, 5-((2-(1-(Cyclohexylsulfonyl)piperidin-4-yl)-2H-1,2,3-triazol-4-yl)methoxy)-2-(1H-tetrazol-1-yl)pyridine] |
| 67.58% | CC(C)S(=O)(=O)N1CCC(n2ncc(COc3ccc(-n4cnnn4)nc3)n2)CC1 [Example 45, 5-((2-(1-(Isopropylsulfonyl)piperidin-4-yl)-2H-1,2,3-triazol-4-yl)methoxy)-2-(1H-tetrazol-1-yl)pyridine] |
| 79.78% | CCCCS(=O)(=O)N1CCC(n2ncc(COc3ccc(-n4cnnn4)nc3)n2)CC1 [Example 46, 5-((2-(1-(Butylsulfonyl)piperidin-4-yl)-2H-1,2,3-triazol-4-yl)methoxy)-2-(1H-tetrazol-1-yl)pyridine] |
| 74.90% | O=S(=O)(Cc1ccccc1)N1CCC(n2ncc(COc3ccc(-n4cnnn4)nc3)n2)CC1 [Example 47, 5-((2-(1-(Benzylsulfonyl)piperidin-4-yl)-2H-1,2,3-triazol-4-yl)methoxy)-2-(1H-tetrazol-1-yl)pyridine] |
| 83.24% | Cc1ncccc1OCc1cnn(C2CCN(c3ncc(C(F)(F)F)cn3)CC2)n1 [Example 48] |
| 49.51% | CC(C)(C)OC(=O)N1CCC(CC(=O)N2CCC(n3ncc(COc4ccc(-n5cnnn5)nc4)n3)CC2)CC1 [Example 50, tert-Butyl 4-(2-(4-(-((6-(1H-tetrazol-1-yl)pyridine-3-yloxy)methyl)-2H-1,2,3-triazol-2-yl)piperidin-1-yl)-2-oxoethyl)piperidine-1-carboxylate] |
| 57.93% | O=C(CC1CCNCC1)N1CCC(n2ncc(COc3ccc(-n4cnnn4)nc3)n2)CC1 [Example 51, 1-(4-(4-((6-(1H-Tetrazol-1-yl)pyridin-3-yloxy)methyl)-2H-1,2,3-triazol-2-yl)piperidin-1-yl)-2-(piperidin-4-yl)ethanone hydrochloride] |
| 52.86% | COC(=O)Cc1cnc(N2CCC(n3ncc(COc4ccc(-n5cnnn5)nc4)n3)CC2)nc1 [Example 52, Methyl 2-(2-(4-(4-((6-(1H-tetrazol-1-yl)pyridin-3-yloxy)methyl)-2H-1,2,3-triazol-2-yl)piperidin-1-yl)pyrimidin-5-yl)acetate] |
| 36.82% | C[C@H](NC(=O)OC(C)(C)C)C(=O)N1CCC(n2ncc(COc3ccc(-n4cnnn4)nc3)n2)CC1 [Example 54, (S)-tert-Butyl 1-(4-(4-((6-(1H-tetrazol-1-yl)pyridin-3-yloxy)methyl)-2H-1,2,3-triazol-2-yl)piperidin-1-yl)-1-oxopropan-2-ylcarbamate] |
| 31.89% | C[C@H](N)C(=O)N1CCC(n2ncc(COc3ccc(-n4cnnn4)nc3)n2)CC1 [Example 55, (S)-1-(4-(4-((6-(1H-tetrazol-1-yl)pyridin-3-yloxy)methyl)-2H-1,2,3-triazol-2-yl)piperidin-1-yl)-2-aminopropan-1-one hydrochloride] |
| 7.31% | CC(C)(C)OC(=O)N[C@H](CC(=O)N1CCC(n2ncc(COc3ccc(-n4cnnn4)nc3)n2)CC1)Cc1cc(F)c(F)cc1F [Example 56, (S)-tert-Butyl 4-(4-(4-((6-(1H-tetrazol-1-yl)pyridin-3-yloxy)methyl)-2H-1,2,3-triazol-2-yl)piperidin-1-yl)-4-oxo-1-(2,4,5-trifluorophenyl)butan-2-ylcarbamate] |
| 27.80% | N[C@H](CC(=O)N1CCC(n2ncc(COc3ccc(-n4cnnn4)nc3)n2)CC1)Cc1cc(F)c(F)cc1F [Example 57, (S)-1-(4-(4-((6-(1H-tetrazol-1-yl)pyridin-3-yloxy)methyl)-2H-1,2,3-triazol-2-yl)piperidin-1-yl)-3-amino-4-(2,4,5-trifluorophenyl)butan-1-one hydrochloride] |
